Values after ≈ are worked out from the molar mass of the structure shown. Read-outs that look alike come from different tables or passages of the source.
Legend:
hERG = target: T1, hERG (Homo sapiens, UniProt Q12809); assay: hERG 2-point automatic patch clamp assay; format: cell-based
T1 construct: expressed in transfected cells; host or cells: HEK293
Experimental: All chemicals used in solution preparation were purchased from Sigma-Aldrich (St. Louis, MO) unless otherwise noted. Test article and positive control concentrations were prepared fresh daily by diluting stock solutions into a HEPES-buffered physiological saline solution (composition in mM): NaCl, 137; KCl, 4.0; CaCl2, 1.8; MgCl2, 1; HEPES, 10; glucose, 10; pH adjusted to 7.4 with NaOH. HEK293 cells were stably transfected with hERG cDNA and maintained in the culture medium with the appropriate selection pressure and antibiotics. All experiments were performed at room temperature. […]
In preparation for a recording session, intracellular solution was loaded into the intracellular compartments of the QPlate and cell suspension was pipetted into the extracellular compartments. After establishment of a whole-cell configuration, membrane currents were recorded using up to 48 parallel patch clamp amplifiers in the QPatch HT system. The current records were sampled at 2,000 Hz and low-pass Bessel filtered at 400 Hz. Onset and block of hERG current were measured using a stimulus voltage pattern consisting of a 500 ms prepulse to –40 mV (leakage subtraction), a 2-s activating pulse to +40 mV, followed by a 2-s test pulse to −40 mV. The pulse pattern was repeated continuously at 10-s intervals, from a holding potential of −80 mV. Peak tail current (upper panel) was measured during the −40 mV test pulse. Leakage current was calculated from the current amplitude evoked by the prepulse and subtracted from the total membrane current record. Data acquisition and analysis was performed using the QPatch Assay Software (Sophion Bioscience A/S, Denmark). Solubility of all compounds was measured using TurboSol in conjunction with the ion channel testing.

Mycobacterium avium = assay: MIC, CLSI microdilution; format: cell-based; conditions: 336 h; Mycobacterium avium (ATCC25291); 7H9 + OADC, 14 days
[1] = system: A. baumannii 19606 (wild-type); assay: microbe, parasite or virus in culture; format: cell-based, Acinetobacter baumannii; conditions: for MIC: Acinetobacter baumannii
[2] = In vivo pharmacokinetic study, 24-h i.v. infusion; design: species or system mouse; conditions: mice; for AUC(0-t): female, CD-1, mouse, whole blood, iv, read-out: exposure AUC0-24
Experimental: Two female CD-1 mice were given a 750 mg/kg of 24 h i.v. infusion dose of G2. […] Two female CD-1 mice were given a 250 mg/kg of 24-h i.v. infusion dose of G1. Another group of two mice received 250 mg/kg of 24-h i.v. infusion dose of G1 with a 150 mg/kg ABT PO dose of pretreatment at 2 h prior the i.v. infusion. Ten microliters of blood was collected accurately at 0.5, 1, 2, 4, 6, 8, and 24 h after infusion start. Blood samples were then immediately placed into labeled polypropylene micro-centrifuge tubes containing 40 µL of 1.7 mg/mL potassium (K2) EDTA in water, mixed, and then frozen and stored at −70°C until bio-analysis.
G2, G1, ABT, and 4-MP blood concentrations in mouse PK studies were determined by LC-MS/MS. All samples were prepared by protein precipitation. Chromatographic separations were achieved using an ACQUITY CM UPLC system (Waters, Milford, MA) including an ACQUITY BSM solvent delivery system, an ACQUITY SM autosampler, and an ACQUITY CM column oven. For G1, G2, and ABT, an ACQUITY UPLC HSS T3 column (2.1 × 50 mm, 1.8 µm) was used. For 4-MP, an ACQUITY UPLC BEH Amide column (2.1 × 50 mm, 1.7 µm) was used. Gradient elution that contained 0.1% formic acid in water and 0.1% formic acid in acetonitrile was used for G1, ABT, and 4-MP. Gradient elution that contained 0.1% formic acid with 2 mM ammonium formate in water/acetonitrile (vol/vol, 95:5) was used for G2. The LC flow rate was 0.6 mL/min for G1, G2, and ABT, and 0.5 mL/min for 4-MP. The sample injection volume was 1 µL for ABT, G1, and G2, and 2 µL for 4-MP. A QTrap 5500/6500 tandem mass spectrometer (SCIEX, Foster City, CA) with TurboIonSpray interface was operated in positive ionization mode with multiple reaction monitoring (MRM) for LC-MS/MS analysis. The mass spectrometer was operated at unit mass resolution for both Q1 and Q3 quadrupoles. The precursor to product ion transitions of analytes are presented as Q1/Q3 ratios for each compound: 4-MP (83.0/56.1), G1 (383.1/197.1), G2 (399.1/171.0), and ABT (135.0/80.1). The standard curves cover the ranges of 0.005 µg/mL–11.7 µg/mL, 0.005 µg/mL–33.4 µg/mL, 0.05 µg/mL–334 µg/mL, and 1.37 µg/mL–334 µg/mL for G1, G2, ABT, and 4-MP, respectively.

[3] = system: Staphylococcus epidermidis; assay: MIC, CLSI microdilution; format: cell-based; conditions: Staphylococcus epidermidis RP62A (ATCC35984); RPMI1640
[4] = system: A. baumannii ΔadeJ (efflux-defective); assay: microbe, parasite or virus in culture; format: cell-based; conditions: Acinetobacter baumannii, read-out: Avg. MIC
A. baumannii 19606 [5] = assay: Fluctuation assay, frequency of spontaneous resistance; format: cell-based, Acinetobacter baumannii; conditions: for frequency of on-target resistance mutations: A. baumannii, 4× or 8× MIC, p0 method; for F.O.R.: P0 method
A. baumannii 19606 [6] = assay: Neutropenic thigh infection model with i.v. GuaBi; conditions: for bacterial load in thigh muscle: neutropenic CD-1 mice, A. baumannii 19606, i.v. infusion with PK boosters, 24 h, high dose groups; for free drug over serum-free MIC at which bactericidal: neutropenic thigh model, A. baumannii
[7] = 24 h, M9 media + 100µM guanine, 24 hours, read-out: A.b.19606 Average CLSI MIC (n=3)
[8] = 24 h, M9 media, 24 hours, read-out: A.b.19606 Average CLSI MIC (n=3)
[9] = A. baumannii 19606 wild-type (Fig 3D), read-out: Avg. MIC
[10] = guaB allele wild-type, M9 media (cross-resistance table), read-out: A.b.19606 Average CLSI MIC (n=3)

T1 sequence (Q12809 whole entry): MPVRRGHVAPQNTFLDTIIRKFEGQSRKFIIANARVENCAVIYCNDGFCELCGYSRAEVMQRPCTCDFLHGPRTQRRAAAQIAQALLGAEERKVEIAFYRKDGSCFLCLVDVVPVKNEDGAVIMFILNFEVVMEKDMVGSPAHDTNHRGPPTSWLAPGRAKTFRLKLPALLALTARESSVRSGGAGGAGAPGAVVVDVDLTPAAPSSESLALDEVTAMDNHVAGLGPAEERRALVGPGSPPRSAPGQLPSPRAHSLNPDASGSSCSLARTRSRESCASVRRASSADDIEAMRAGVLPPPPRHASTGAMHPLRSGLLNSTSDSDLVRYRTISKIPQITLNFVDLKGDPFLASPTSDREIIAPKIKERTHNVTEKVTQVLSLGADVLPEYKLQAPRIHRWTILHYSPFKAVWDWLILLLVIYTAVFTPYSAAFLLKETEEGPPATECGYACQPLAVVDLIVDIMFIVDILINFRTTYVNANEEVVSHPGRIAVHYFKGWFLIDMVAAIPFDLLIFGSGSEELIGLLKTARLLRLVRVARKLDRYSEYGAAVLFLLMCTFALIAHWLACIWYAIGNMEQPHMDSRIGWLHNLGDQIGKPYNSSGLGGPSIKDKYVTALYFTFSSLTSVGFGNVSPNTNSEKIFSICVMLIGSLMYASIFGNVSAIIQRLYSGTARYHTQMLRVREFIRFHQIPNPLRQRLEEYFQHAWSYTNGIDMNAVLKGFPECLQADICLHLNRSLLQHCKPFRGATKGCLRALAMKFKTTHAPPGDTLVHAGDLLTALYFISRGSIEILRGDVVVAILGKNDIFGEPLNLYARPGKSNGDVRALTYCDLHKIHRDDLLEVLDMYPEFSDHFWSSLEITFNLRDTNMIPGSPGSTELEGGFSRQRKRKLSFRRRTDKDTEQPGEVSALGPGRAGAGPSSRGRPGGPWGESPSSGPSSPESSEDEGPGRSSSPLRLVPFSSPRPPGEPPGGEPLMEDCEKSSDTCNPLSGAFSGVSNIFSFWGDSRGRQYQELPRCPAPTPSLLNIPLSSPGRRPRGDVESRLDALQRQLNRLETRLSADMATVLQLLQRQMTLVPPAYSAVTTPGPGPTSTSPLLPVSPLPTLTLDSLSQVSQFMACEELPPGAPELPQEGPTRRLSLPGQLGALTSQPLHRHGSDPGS

| SMILES | hERG 1µM (hERG) [%] | hERG 10µM (hERG) [%] | MIC (Mycobacterium avium) [µM] | MIC [1, 7] [µM] | MIC [1, 8] [µM] | MIC [1, 9] [µM] | MIC [1, 10] [µM] | GuaBi CLSI MIC fold change from parent strain ([1]; guaB allele wild-type) | AUC(0-t) ([2]; 24-h i.v. infusion 250 mg/kg, co-administered 150 mg/kg ABT) [µM·h] | exposure higher than without co-administration with ABT ([2]; 250 mg/kg 24-h i.v. infusion) | MIC [3] [µM] | MIC [4] [µM] | frequency of on-target resistance mutations (A. baumannii 19606 [5]) | bacterial load in thigh muscle (A. baumannii 19606 [6]) | free drug over serum-free MIC at which bactericidal (A. baumannii 19606 [6]) | hERG 50µM (hERG) | AUC(0-t) ([2]; 24-h i.v. infusion 750 mg/kg, co-administered 150 mg/kg ABT and 100 mg/kg 4-MP) [µM·h] | exposure higher than without co-administration with ABT and 4-MP ([2]; 750 mg/kg 24-h i.v. infusion) [fold] | F.O.R. (A. baumannii 19606 [5]; selection 4xMIC (G1 3.1µM; G2 6.4µM)) | F.O.R. (A. baumannii 19606 [5]; selection 8xMIC (12.8µM)) |
| --- | --- | --- | --- | --- | --- | --- | --- | --- | --- | --- | --- | --- | --- | --- | --- | --- | --- | --- | --- | --- |
| C[C@H](Nc1ccc2ncc3c(c2c1)CCOC3)C(=O)Nc1ccc(Cl)nc1 [G1, (2S)-N-(6-chloro-3-pyridyl)-2-(2,4-dihydro-1H-pyrano[3,4-c]quinolin-9 ylamino)propanamide] | 2.80 | 37.20 | 0.8 | > 100 | 1 (≈ 0.383 µg/mL) | 0.69 (≈ 0.264 µg/mL) | 0.5 (≈ 0.191 µg/mL) | 1 | 692 | fourfold | 0.03 (≈ 0.0115 µg/mL) | 0.016 (≈ 0.00613 µg/mL) | 6.4 × 10^−11 to 2.9 × 10^−10 | reduced the bacterial load in thigh muscle compared to pre-treatment | above 2 × Fu/MIC | – | – | – | – | – |
| C[C@H](Nc1ccc2ncc(CO)cc2c1)C(=O)Nc1ccc(Cl)c(N(C)C)c1 [G2, (2S)-N-[4-chloro-3-(dimethylamino)phenyl]-2-[[3-(hydroxymethyl)-6-quinolyl]amino]propanamide] | 1.70 | 8.60 | 12.5 | > 100 | 4.2 (≈ 1.68 µg/mL) | 2 (≈ 0.798 µg/mL) | 4.2 (≈ 1.68 µg/mL) | 1 | – | – | 0.4 (≈ 0.16 µg/mL) | 0.04 (≈ 0.016 µg/mL) | 3.6 × 10^−10 to 5.1 × 10^−10 | reduced the bacterial load in thigh muscle compared to pre-treatment | 5 × Fu/MIC | *48.5% | 21300 | 100 | 3.60E-10 | 5.10E-10 |
| C[C@@H](Oc1ccc2ncc3c(c2c1)CCOC3)c1cncc(-c2nc(Cl)c[nH]2)c1 [G8, (R)-9-[1-[5-(4-chloro-1H-imidazol-2-yl)-3-pyridyl]ethoxy]-2,4-dihydro-1H-pyrano[3,4 c]quinoline] | – | 6.3 | 0.04 | > 100 | 0.4 (≈ 0.163 µg/mL) | 0.39 (≈ 0.159 µg/mL) | 0.3 (≈ 0.122 µg/mL) | 1 | – | – | 0.004 (≈ 0.00163 µg/mL) | 0.01 (≈ 0.00407 µg/mL) | – | – | – | 50.1% | – | – | – | – |

From article PMC11481871, “Discovery of GuaB inhibitors with efficacy against Acinetobacter baumannii infection” (mBio, 2024)
